Test results: PubChem BioAssay (NCI)
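Cultured in 96-well plates, cells were exposed to test compound for 48 hours across five concentrations. Definition used: TGI = concentration required for complete inhibition of growth.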

Legend:
Test in all cases: inhibition of tumour cell growth, NCI panel, 48 h
MDA-MB-435 = system: MDA-MB-435
SW-620 colon = system: SW-620 colon
NCI-H522 lung = system: NCI-H522 lung
CAKI-1 renal = system: CAKI-1 renal
HCC-2998 colon = system: HCC-2998 colon
786-0 renal = system: 786-0 renal
OVCAR-3 ovarian = system: OVCAR-3 ovarian
NCI-H226 lung = system: NCI-H226 lung
M14 melanoma = system: M14 melanoma
OVCAR-8 ovarian = system: OVCAR-8 ovarian
RPMI-8226 leukemia = system: RPMI-8226 leukemia
T-47D breast = system: T-47D breast

Clc1nc(Cl)nc(NC23CC4CC(CC(C4)C2)C3)n1
TGI (MDA-MB-435): 34.4 µM
TGI (SW-620 colon): 31.5 µM
TGI (NCI-H522 lung): 30.9 µM
TGI (CAKI-1 renal): 21.7 µM
TGI (HCC-2998 colon): 41.2 µM
TGI (786-0 renal): 31.2 µM
TGI (OVCAR-3 ovarian): 37.7 µM
TGI (NCI-H226 lung): 44.2 µM
TGI (M14 melanoma): 33.6 µM
TGI (OVCAR-8 ovarian): 34.9 µM
TGI (RPMI-8226 leukemia): 38.4 µM
TGI (T-47D breast): 42.6 µM

O=c1c2ccccc2[nH]c(=S)n1-c1ccc(N=Nc2cccc3c(O)cccc23)cc1
TGI (MDA-MB-435): 68.9 µM
TGI (SW-620 colon): > 100 µM
TGI (NCI-H522 lung): > 100 µM
TGI (CAKI-1 renal): > 100 µM
TGI (HCC-2998 colon): > 100 µM
TGI (786-0 renal): > 100 µM
TGI (OVCAR-3 ovarian): > 100 µM
TGI (NCI-H226 lung): > 100 µM
TGI (M14 melanoma): > 100 µM
TGI (OVCAR-8 ovarian): > 100 µM
TGI (RPMI-8226 leukemia): > 100 µM
TGI (T-47D breast): > 100 µM

Nc1nc(Cl)cc(NCC2(CO)CC(CCc3ccccc3)C2)n1 (stereo not drawn)
TGI (MDA-MB-435): > 100 µM
TGI (SW-620 colon): > 100 µM
TGI (NCI-H522 lung): > 100 µM
TGI (CAKI-1 renal): > 100 µM
TGI (HCC-2998 colon): > 100 µM
TGI (786-0 renal): > 100 µM
TGI (OVCAR-3 ovarian): > 100 µM
TGI (NCI-H226 lung): > 100 µM
TGI (M14 melanoma): > 100 µM
TGI (OVCAR-8 ovarian): > 100 µM
TGI (RPMI-8226 leukemia): > 100 µM
TGI (T-47D breast): > 29.1 µM

COC(=O)C1=C(C(=O)OC)C2OC1C1C2C2(C)C(C)=C(C)C1(C)S2=O (stereo not drawn)
TGI (MDA-MB-435): 19.4 µM
TGI (SW-620 colon): 12.6 µM
TGI (NCI-H522 lung): 6.49 µM
TGI (CAKI-1 renal): 27 µM
TGI (HCC-2998 colon): 38.3 µM
TGI (786-0 renal): 20.2 µM
TGI (OVCAR-3 ovarian): 25.5 µM
TGI (NCI-H226 lung): 22.9 µM
TGI (M14 melanoma): 27.7 µM
TGI (OVCAR-8 ovarian): > 100 µM
TGI (RPMI-8226 leukemia): 31 µM
TGI (T-47D breast): 22.2 µM

CC(C)=CCN1CC(C)C(=O)Nc2cc(Cl)ccc21 (stereo not drawn)
TGI (MDA-MB-435): 52.1 µM
TGI (SW-620 colon): 67.9 µM
TGI (NCI-H522 lung): 73.3 µM
TGI (CAKI-1 renal): 55.5 µM
TGI (HCC-2998 colon): 97.6 µM
TGI (786-0 renal): 39.2 µM
TGI (OVCAR-3 ovarian): 32.9 µM
TGI (NCI-H226 lung): 40.6 µM
TGI (M14 melanoma): 43.3 µM
TGI (OVCAR-8 ovarian): 79.4 µM
TGI (RPMI-8226 leukemia): > 100 µM
TGI (T-47D breast): > 100 µM

COc1cc2oc(-c3ccc(O)cc3)c(OC3OC(C)C(O)C(O)C3O)c(=O)c2c(O)c1OC (stereo not drawn)
TGI (MDA-MB-435): > 100 µM
TGI (SW-620 colon): > 100 µM
TGI (NCI-H522 lung): > 100 µM
TGI (CAKI-1 renal): > 100 µM
TGI (HCC-2998 colon): > 100 µM
TGI (786-0 renal): > 100 µM
TGI (OVCAR-3 ovarian): > 100 µM
TGI (NCI-H226 lung): > 100 µM
TGI (M14 melanoma): > 100 µM
TGI (OVCAR-8 ovarian): > 100 µM
TGI (RPMI-8226 leukemia): > 100 µM
TGI (T-47D breast): > 100 µM

O=c1oc2ccccc2c(O)c1C(c1cc(OCc2ccccc2)cc(OCc2ccccc2)c1)c1c(O)c2ccccc2oc1=O
TGI (MDA-MB-435): 31.3 µM
TGI (SW-620 colon): > 43.8 µM
TGI (NCI-H522 lung): 37.9 µM
TGI (CAKI-1 renal): 22.1 µM
TGI (HCC-2998 colon): 11.9 µM
TGI (786-0 renal): 31.7 µM
TGI (OVCAR-3 ovarian): 35 µM
TGI (NCI-H226 lung): > 45.3 µM
TGI (M14 melanoma): 23 µM
TGI (OVCAR-8 ovarian): > 44.5 µM
TGI (RPMI-8226 leukemia): 6.08 µM
TGI (T-47D breast): 38.1 µM

O=c1c2c3ccccc3[nH]c2c2cccc3c2n1CCC3
TGI (MDA-MB-435): > 100 µM
TGI (SW-620 colon): > 100 µM
TGI (HCC-2998 colon): > 100 µM
TGI (786-0 renal): > 100 µM
TGI (OVCAR-3 ovarian): > 100 µM
TGI (NCI-H226 lung): > 100 µM
TGI (M14 melanoma): > 100 µM
TGI (OVCAR-8 ovarian): > 100 µM
TGI (T-47D breast): > 100 µM

CC(=O)NC1C(OCc2ccccc2)OC(CO)C(O)C1OCC(=O)N[C@@H](C)C(=O)N[C@H](CCC(=O)NCCNCCNc1c2ccccc2nc2cccc([N+](=O)[O-])c12)C(N)=O (stereo partly drawn)
TGI (MDA-MB-435): 71.1 µM
TGI (SW-620 colon): > 100 µM
TGI (NCI-H522 lung): 28.1 µM
TGI (CAKI-1 renal): 69 µM
TGI (HCC-2998 colon): 22.5 µM
TGI (786-0 renal): 99.4 µM
TGI (OVCAR-3 ovarian): > 100 µM
TGI (M14 melanoma): > 100 µM
TGI (OVCAR-8 ovarian): > 100 µM
TGI (RPMI-8226 leukemia): 73.3 µM
TGI (T-47D breast): > 100 µM

CC(C)(C)C(=O)C(CC(=O)c1ccccc1)C(=O)C(C)(C)C
TGI (MDA-MB-435): > 100 µM
TGI (SW-620 colon): > 100 µM
TGI (NCI-H522 lung): > 100 µM
TGI (CAKI-1 renal): > 100 µM
TGI (HCC-2998 colon): > 100 µM
TGI (786-0 renal): > 100 µM
TGI (OVCAR-3 ovarian): > 100 µM
TGI (NCI-H226 lung): > 100 µM
TGI (M14 melanoma): > 100 µM
TGI (OVCAR-8 ovarian): > 100 µM
TGI (RPMI-8226 leukemia): > 100 µM
TGI (T-47D breast): > 100 µM

Cc1ccc(N=Nc2c3c(c(O)c4ccccc24)CCC(C)(C)O3)cc1
TGI (MDA-MB-435): 31.7 µM
TGI (SW-620 colon): > 100 µM
TGI (NCI-H522 lung): > 100 µM
TGI (CAKI-1 renal): > 100 µM
TGI (HCC-2998 colon): 34.3 µM
TGI (786-0 renal): > 100 µM
TGI (OVCAR-3 ovarian): 62.4 µM
TGI (NCI-H226 lung): > 100 µM
TGI (M14 melanoma): 32.6 µM
TGI (OVCAR-8 ovarian): > 100 µM
TGI (RPMI-8226 leukemia): > 100 µM
TGI (T-47D breast): 60.3 µM

O=c1[nH]c2nc3ccccc3c(=O)n2/c1=C/c1ccc(O)cc1
TGI (MDA-MB-435): 69.8 µM
TGI (SW-620 colon): 56.4 µM
TGI (NCI-H522 lung): > 100 µM
TGI (CAKI-1 renal): > 100 µM
TGI (HCC-2998 colon): 69.9 µM
TGI (786-0 renal): > 100 µM
TGI (OVCAR-3 ovarian): > 100 µM
TGI (NCI-H226 lung): > 100 µM
TGI (M14 melanoma): > 100 µM
TGI (OVCAR-8 ovarian): 54.8 µM
TGI (RPMI-8226 leukemia): 53.2 µM
TGI (T-47D breast): > 100 µM

C=CC(=O)c1ccc2c(c1)OCCOCCOCCOCCOCCO2
TGI (MDA-MB-435): 43.2 µM
TGI (SW-620 colon): 35.2 µM
TGI (NCI-H522 lung): 24.7 µM
TGI (CAKI-1 renal): 68 µM
TGI (HCC-2998 colon): > 100 µM
TGI (786-0 renal): 31.1 µM
TGI (OVCAR-3 ovarian): 35.4 µM
TGI (NCI-H226 lung): > 100 µM
TGI (M14 melanoma): 41.6 µM
TGI (OVCAR-8 ovarian): 41.9 µM
TGI (RPMI-8226 leukemia): > 100 µM
TGI (T-47D breast): 59.4 µM

O=C(/C(=C(/Br)I)c1ccccc1)c1ccccc1
TGI (MDA-MB-435): 82.6 µM
TGI (CAKI-1 renal): > 100 µM
TGI (HCC-2998 colon): 30.1 µM
TGI (786-0 renal): 39.5 µM
TGI (OVCAR-3 ovarian): 42 µM
TGI (NCI-H226 lung): 40.4 µM
TGI (M14 melanoma): 31 µM
TGI (OVCAR-8 ovarian): 48.3 µM
TGI (RPMI-8226 leukemia): 47.2 µM
TGI (T-47D breast): 59.8 µM

CCN(CC)CCn1c2cc3c(cc2c(=O)c2cccnc21)OCCO3
TGI (MDA-MB-435): > 10 µM
TGI (SW-620 colon): > 10 µM
TGI (NCI-H522 lung): > 10 µM
TGI (CAKI-1 renal): > 10 µM
TGI (HCC-2998 colon): > 10 µM
TGI (786-0 renal): > 10 µM
TGI (OVCAR-3 ovarian): > 10 µM
TGI (M14 melanoma): > 10 µM
TGI (OVCAR-8 ovarian): > 10 µM
TGI (RPMI-8226 leukemia): > 10 µM
TGI (T-47D breast): > 10 µM

COc1ccc(N2C(=O)C3c4[nH]c5ccc([N+](=O)[O-])cc5c4C4CCC(C(C)(C)C)CC4C3C2=O)cc1 (stereo not drawn)
TGI (MDA-MB-435): > 100 µM
TGI (SW-620 colon): > 100 µM
TGI (NCI-H522 lung): > 100 µM
TGI (CAKI-1 renal): > 100 µM
TGI (HCC-2998 colon): > 100 µM
TGI (786-0 renal): 38 µM
TGI (OVCAR-3 ovarian): 49.5 µM
TGI (NCI-H226 lung): 72.6 µM
TGI (M14 melanoma): > 100 µM
TGI (OVCAR-8 ovarian): > 100 µM
TGI (RPMI-8226 leukemia): 89.5 µM
TGI (T-47D breast): > 100 µM

O=C1CC(C(O)CO)CC(=O)N1 (stereo not drawn)
TGI (MDA-MB-435): > 100 µM
TGI (SW-620 colon): > 100 µM
TGI (NCI-H522 lung): > 100 µM
TGI (CAKI-1 renal): > 100 µM
TGI (HCC-2998 colon): > 100 µM
TGI (786-0 renal): > 100 µM
TGI (OVCAR-3 ovarian): > 100 µM
TGI (NCI-H226 lung): > 100 µM
TGI (M14 melanoma): > 100 µM
TGI (OVCAR-8 ovarian): > 100 µM
TGI (RPMI-8226 leukemia): > 100 µM
TGI (T-47D breast): > 100 µM

CCOP(=O)(OCC)[C@H](O)c1ccsc1
TGI (MDA-MB-435): > 100 µM
TGI (SW-620 colon): > 100 µM
TGI (NCI-H522 lung): > 100 µM
TGI (CAKI-1 renal): > 100 µM
TGI (HCC-2998 colon): > 100 µM
TGI (786-0 renal): > 100 µM
TGI (NCI-H226 lung): > 100 µM
TGI (M14 melanoma): > 100 µM
TGI (OVCAR-8 ovarian): > 100 µM
TGI (RPMI-8226 leukemia): > 100 µM
TGI (T-47D breast): > 100 µM
